According to US10577373B2, “TYK2 inhibitors and uses thereof” (Nimbus Lakshmi, Inc., priority 2017, dated 2020):
Read-outs that look alike come from different tables or passages of the source.

What was measured:
[1] = tested on: IL-12 induced STAT4 phophorylation mediated by Tyk2/JAK2 (heterodimeric complex); test: IL-12 Induced pSTAT4 in Human PBMC; type: cell-based; conditions: 1.7 ng/mL IL-12
Source text: The IL-12 Induced pSTAT4 assay evaluates the inhibition of IL-12 induced STAT4 phophorylation mediated by Tyk2/JAK2 (heterodimeric complex).

[2] = tested on: GM-CSF induced STAT5 phosphorylation mediated by the JAK2/JAK2 homdimeric complex; test: GM-CSF Induced pSTAT5 in Human PBMC
Source text: Human PBMC are isolated from buffy coat and are stored frozen for assays as needed.

[3] = Homo sapiens, PBMC, 20 min, read-out: PBMC_GMCSF_pSTAT5 IC50, human PBMC, GM-CSF 5 ng/mL for 20 minutes, pSTAT5

Row | Structure (SMILES) | IC50 [1] [nM] | IC50 [2, 3] [nM] | IC50 ([2]; read-out: PBMC_GMCSF_pSTAT5 IC50, human PBMC, GM-CSF 5 ng/mL for 20 minutes, pSTAT5) [nM] | IC50 ([2]; Homo sapiens, PBMC, 20 min, read-out: PBMC_GMCSF_pSTAT5 IC50) [nM]
1 | CNc1cc(Nc2cc(C)cc(C)c2)nc2c(C(N)=O)cnn12 [I-2, 5-((3,5-dimethylphenyl)amino)-7-(methylamino)pyrazolo[1,5-a]pyrimidine-3-carboxamide] | < 100 | > 50000 | – | –
2 | CNc1cc(Nc2cc(F)ccc2F)nc2c(C(=O)NC3CC3)cnn12 [I-3] | < 100 | > 12500 | – | –
3 | CNc1cc(Nc2cccnc2OC)nc2c(C(=O)NC3CCC3)cnn12 [I-4] | < 100 | > 12500 | – | –
4 | CNc1cc(Nc2cc(F)cc(F)c2F)nc2c(C(=O)NC3CC3)cnn12 [I-5] | < 100 | > 50000 | – | –
5 | CNc1cc(Nc2cc(C)cc(F)c2)nc2c(C(=O)NC3CC3)cnn12 [I-6] | < 100 | > 50000 | – | –
6 | CNc1cc(Nc2cccc(N3CCCC3=O)n2)nc2c(C(=O)NC3CC3)cnn12 [I-7] | < 100 | > 12500 | – | –
7 | CNc1cc(Nc2cccc(C)c2Cl)nc2c(C(N)=O)cnn12 [I-14] | < 100 | > 50000 | – | –
8 | CNc1cc(Nc2cccc(-c3nccs3)c2Cl)nc2c(C(N)=O)cnn12 [I-16] | < 100 | > 2500 | – | –
9 | CNc1cc(Nc2cccc(-c3cnn(C)c3)c2Cl)nc2c(C(N)=O)cnn12 [I-17] | < 100 | > 2500 | – | –
10 | CNc1cc(Nc2cc(C)cn(-c3cnn(C)c3)c2=O)nc2c(C(N)=O)cnn12 [I-31] | 100 to 500 | > 300 | – | –
11 | CCn1cc(Cl)cc(Nc2cc(NC)n3ncc(C(N)=O)c3n2)c1=O [I-35] | < 100 | > 300 | – | –
12 | CNc1cc(-c2c[nH]c3c(C)cc(C)cc23)nc2c(C(N)=O)cnn12 [I-36, 5-(5,7-dimethyl-1H-indol-3-yl)-7-(methylamino)pyrazolo[1,5-a]pyrimidine-3-carboxamide] | < 100 | > 12500 | – | –
13 | CNc1cc(Nc2cccc(N3CCCC3=O)n2)nc2c(C(N)=O)cnn12 [I-47] | < 100 | > 300 | – | –
14 | CNc1cc(Nc2cccnc2OC(C)C)nc2c(C(N)=O)cnn12 [I-72] | 100 to 500 | > 12500 | – | –
15 | CNc1cc(Nc2cccc(N3CCCC3=O)n2)nc2c(C(=O)NC3CCC3)cnn12 [I-94] | < 100 | > 50000 | – | –
16 | CNc1cc(Nc2cccn(-c3cnc(C(C)(C)O)cn3)c2=O)nc2c(C(=O)NC3CCC3)cnn12 [I-95] | < 100 | – | – | > 50000
17 | CNc1cc(Nc2cccc(N3CCOC3=O)n2)nc2c(C(=O)NC3CCC3)cnn12 [I-105] | < 100 | > 12500 | – | –
18 | CNc1cc(Nc2cccnc2OC)nc2c(C(=O)N[C@H]3C[C@H]3F)cnn12 [I-110] | < 100 | > 50000 | – | –
19 | CNc1cc(Nc2cccn(-c3ccc(F)cn3)c2=O)nc2c(C(=O)N[C@H]3C[C@H]3F)cnn12 [I-115] | < 100 | > 12500 | – | –
20 | CCOc1ccc(-n2cccc(Nc3cc(NC)n4ncc(C(=O)N[C@H]5C[C@H]5F)c4n3)c2=O)nn1 [I-117] | < 100 | > 2500 | – | –
21 | CNc1cc(Nc2cccn(-c3ccc(C(=O)N4CCCC4)cn3)c2=O)nc2c(C(=O)NC3CCC3)cnn12 [I-121] | 100 to 500 | > 12500 | – | –
22 | CNc1cc(Nc2cccn(-c3cnc(C(=O)N(C)C)cn3)c2=O)nc2c(C(=O)NC3CCC3)cnn12 [I-122] | < 100 | > 2500 | – | –
23 | CNc1cc(Nc2cccn(-c3cccc(C(C)(C)O)n3)c2=O)nc2c(C(=O)N[C@H]3C[C@H]3F)cnn12 [I-123] | < 100 | > 50000 | – | –
24 | CNc1cc(Nc2cccn(-c3cnc(C(=O)N(C)C)cn3)c2=O)nc2c(C(=O)N[C@H]3C[C@H]3F)cnn12 [I-126] | < 100 | > 50000 | – | –

The next lines start with results.

Row | IC50 [1] [nM] | IC50 [2, 3] [nM] | IC50 ([2]; read-out: PBMC_GMCSF_pSTAT5 IC50, human PBMC, GM-CSF 5 ng/mL for 20 minutes, pSTAT5) [nM] | Structure (SMILES) | IC50 ([2]; Homo sapiens, PBMC, 20 min, read-out: PBMC_GMCSF_pSTAT5 IC50) [nM]
25 | < 100 | > 2500 | – | CNc1cc(Nc2cccn(-c3ncc(C)s3)c2=O)nc2c(C(=O)N[C@H]3CC[C@@H]3O)cnn12 (stereo in doubt) [I-676, N-(2-hydroxycyclobutyl)-7-(methylamino)-5-((1-(5-methylthiazol-2-yl)-2-oxo-1,2-dihydropyridin-3-yl)amino)pyrazolo[1,5-a]pyrimidine-3-carboxamide] | –
26 | < 100 | – | > 2500 | CNc1cc(Nc2cccn(-c3ccccn3)c2=O)nc2c(C(=O)N[C@@H]3CC[C@H]3OC)cnn12 (stereo in doubt) [I-816, N-(2-methoxycyclobutyl)-7-(methylamino)-5-((2-oxo-2H-[1,2′-bipyridin]-3-yl)amino)pyrazolo[1,5-a]pyrimidine-3-carboxamide] | –
27 | < 100 | > 12500 | – | CNc1cc(Nc2cccn(-c3cnc(C(=O)N(C)C)cn3)c2=O)nc2c(C(=O)NC3CC3)cnn12 [I-127, N-cyclopropyl-5-((1-(5-(dimethylcarbamoyl)pyrazin-2-yl)-2-oxo-1,2-dihydropyridin-3-yl)amino)-7-(methylamino)pyrazolo[1,5-a]pyrimidine-3-carboxamide] | –
28 | < 100 | > 12500 | – | CNc1cc(Nc2cccn(-c3cccc(C)n3)c2=O)nc2c(C(=O)N[C@H]3C[C@H]3F)cnn12 [I-131] | –
29 | < 100 | > 2500 | – | CNc1cc(Nc2cccn(-c3ccc(F)cc3)c2=O)nc2c(C(=O)N[C@H]3C[C@H]3F)cnn12 [I-132] | –
30 | < 100 | > 12500 | – | CCn1cc(Cl)cc(Nc2cc(NC)n3ncc(C(=O)NC4CC4)c3n2)c1=O [I-133, 5-((5-chloro-1-ethyl-2-oxo-1,2-dihydropyridin-3-yl)amino)-N-cyclopropyl-7-(methylamino)pyrazolo[1,5-a]pyrimidine-3-carboxamide] | –
31 | < 100 | > 2500 | – | CNc1cc(Nc2cccn(-c3ccc(N4CCOCC4)cc3)c2=O)nc2c(C(=O)N[C@H]3C[C@H]3F)cnn12 [I-135] | –
32 | < 100 | > 2500 | – | CNc1cc(Nc2cccn(-c3cc(C)n(C)n3)c2=O)nc2c(C(=O)NC3CCC3)cnn12 [I-136] | –
33 | < 100 | > 50000 | – | CNc1cc(Nc2cccn(-c3cc(C)n(C)n3)c2=O)nc2c(C(=O)N[C@H]3C[C@H]3F)cnn12 [I-137] | –
34 | < 100 | > 50000 | – | CNc1cc(Nc2cccn(-c3cc(C)n(C)n3)c2=O)nc2c(C(=O)NC3CC3)cnn12 [I-138] | –
35 | < 100 | > 50000 | – | CNc1cc(Nc2cccn(-c3ccn(C)n3)c2=O)nc2c(C(=O)NC3CCC3)cnn12 [I-139] | –
36 | < 100 | > 50000 | – | CNc1cc(Nc2cccn(-c3ccc(C)nn3)c2=O)nc2c(C(=O)NC3CCC3)cnn12 [I-141] | –
37 | 100 to 500 | > 50000 | – | CNc1cc(Nc2cccnc2OC(C)C)nc2c(C(=O)NC3CCC3)cnn12 [I-145] | –
38 | < 100 | > 50000 | – | CNc1cc(Nc2cccnc2OC(C)C)nc2c(C(=O)N[C@H]3C[C@H]3F)cnn12 [I-147] | –
39 | < 100 | > 50000 | – | CNc1cc(Nc2cccnc2OC(F)F)nc2c(C(=O)NC3CCC3)cnn12 [I-151] | –
40 | < 100 | > 12500 | – | CNc1cc(Nc2cccnc2OC(F)F)nc2c(C(=O)N[C@H]3C[C@H]3F)cnn12 [I-153] | –
41 | < 100 | > 12500 | – | CNc1cc(Nc2cccnc2OC(F)F)nc2c(C(=O)NC3CC3)cnn12 [I-154] | –
42 | < 100 | > 12500 | – | CNc1cc(Nc2cccn(-c3cccc(C(C)(C)O)n3)c2=O)nc2c(C(=O)NC3CCC3)cnn12 [I-156] | –

Row | IC50 [1] [nM] | IC50 [2, 3] [nM] | IC50 ([2]; read-out: PBMC_GMCSF_pSTAT5 IC50, human PBMC, GM-CSF 5 ng/mL for 20 minutes, pSTAT5) [nM] | Structure (SMILES) | IC50 ([2]; Homo sapiens, PBMC, 20 min, read-out: PBMC_GMCSF_pSTAT5 IC50) [nM]
43 | < 100 | > 50000 | – | CNc1cc(Nc2cccn(-c3ccon3)c2=O)nc2c(C(=O)NC3CCC3)cnn12 [I-158] | –
44 | < 100 | > 12500 | – | CNc1cc(Nc2cccn(-c3cc(C)on3)c2=O)nc2c(C(=O)NC3CCC3)cnn12 [I-160] | –
45 | < 100 | > 12500 | – | CNc1cc(Nc2cccn(-c3cc(C)on3)c2=O)nc2c(C(=O)N[C@H]3C[C@H]3F)cnn12 [I-161] | –
46 | < 100 | > 2500 | – | CNc1cc(Nc2cccn(-c3cc(C)on3)c2=O)nc2c(C(=O)NC3CC3)cnn12 [I-162] | –
47 | < 100 | > 2500 | – | CNc1cc(Nc2cccn(-c3ccc(N4CCOCC4)cn3)c2=O)nc2c(C(=O)NC3CCC3)cnn12 [I-163] | –
48 | < 100 | > 50000 | – | CNc1cc(Nc2cc(Cl)cn(-c3ccc(C)nn3)c2=O)nc2c(C(=O)N[C@H]3C[C@H]3F)cnn12 [I-164] | –
49 | < 100 | > 2500 | – | CNc1cc(Nc2cccn(-c3ccc(C4CC4)nn3)c2=O)nc2c(C(=O)N[C@H]3C[C@H]3F)cnn12 [I-165] | –
50 | < 100 | > 50000 | – | CNc1cc(Nc2cccnc2OC2CCC2)nc2c(C(=O)N[C@H]3C[C@H]3F)cnn12 [I-170] | –
51 | < 100 | > 50000 | – | [2H]C([2H])([2H])Oc1ncccc1Nc1cc(NC)n2ncc(C(=O)NC3CCC3)c2n1 [I-176] | –
52 | < 100 | > 12500 | – | [2H]C([2H])([2H])Oc1ncccc1Nc1cc(NC)n2ncc(C(=O)N[C@H]3C[C@H]3F)c2n1 [I-177] | –
53 | < 100 | > 2500 | – | CNc1cc(Nc2cccn([C@H]3CC[C@@H](N4CCOCC4)CC3)c2=O)nc2c(C(=O)NC3CCC3)cnn12 [I-182] | –
54 | < 100 | > 12500 | – | CNc1cc(-c2c[nH]c3c(C4CCOCC4)cc(Cl)cc23)nc2c(C(N)=O)cnn12 [I-190] | –
55 | < 100 | > 12500 | – | CNc1cc(Nc2cccn(C3CCN(CC(F)F)CC3)c2=O)nc2c(C(=O)NC3CCC3)cnn12 [I-192] | –
56 | < 100 | > 12500 | – | CNc1cc(Nc2cc(F)cn(-c3ccccn3)c2=O)nc2c(C(=O)NC3CCC3)cnn12 [I-193] | –
57 | < 100 | > 12500 | – | CNc1cc(Nc2cc(F)cn(-c3ccccn3)c2=O)nc2c(C(=O)N[C@H]3C[C@H]3F)cnn12 [I-194] | –
58 | < 100 | > 2500 | – | CNc1cc(Nc2cc(F)cn(-c3ccc(C)nn3)c2=O)nc2c(C(=O)N[C@H]3C[C@H]3F)cnn12 [I-198] | –
59 | 100 to 500 | > 50000 | – | CNc1cc(Nc2cc(F)cnc2OC(C)C)nc2c(C(=O)N[C@H]3C[C@H]3F)cnn12 [I-211] | –
